In assay [1] the test system is R207A mutated N-SH2 (p120RasGAP). The assay can be described thus: Isothermal titration calorimetry (ITC), R207A mutant N-SH2. The format is binding, human. How it is done: (§1) A mutant form, with R207A mutation, was introduced by QuikChange mutagenesis (Agilent) using forward and reverse primers (5'-[…]-3', 5'- […]-3’). Expression and purification were by identical methods as wild type protein. Yield for the mutant was 4 mg/L culture. Both wild type and mutant constructs elute from size exclusion chromatography as monodisperse peaks.
(§2) A synthetic 13 amino acid peptide of sequence EEENI(p-Tyr)SVPHDST native to p190RhoGAP residues 1100 to 1112 phosphorylated at Tyr-1105, with N-terminal acetylation and C-terminal amidation, was commercially synthesized (GenScript) and re-suspended in sterile-filtered water.
The N-SH2 protein and pTyr1105 peptide were prepared for ITC by overnight dialysis in a common buffer with a 20mM Tris 7.4, 150mM NaCl composition. Slide-A-Lyzer Dialysis Cassettes with a molecular weight cut-off of 3,500 Da were used for protein dialysis and Micro Float-A-Lyzer Dialysis devices with a 100–500 Da cut-off for peptide dialysis. Samples were retrieved from their cartridges, spun down for 10 minutes at 4°C. Concentrations were measured using a Nanodrop spectrophotometer at 280 nm. To determine peptide concentration, a phosphotyrosine extinction coefficient of 458.6 M^-1cm^-1 at pH 7.4 was used. […] Results were analyzed using the nano-ITC software, through fitting to an independent binding model. […]

Assay [2] has as its system wild-type p120RasGAP N-SH2. The assay can be described thus: Native PAGE gel shift, wild-type N-SH2. The following applies: saturating peptide concentrations; protein 0.08 mM, peptide 0.02 to 0.15 mM (peptide:protein 0.25 to 1.9); on ice 10 min; 50 mM Tris pH 7.4; 4–20% gel, pH 8.3, 200 V 1 h; Coomassie. Type of assay: binding, human. How it is done: cDNA of residues 174 through 280 of human p120RasGAP (UniProt ID: P20936) encoding the N-terminal SH2 domain tagged was subcloned into a modified pET28a vector with an N-terminal hexahistidine tag and TEV protease recognition sequence. Two native cysteines, C236 and C261, were mutated to serine to prevent disulfide bridge formation. Following transformation into Rosetta(DE3) cells, a 1L culture was induced overnight at OD600 of 0.6–0.8 and 18°C using 0.2 mM IPTG. Cells were harvested by centrifugation and resuspended in lysis buffer (50 mM HEPES pH 7.3, 500 mM NaCl). Lysis was facilitated by lysozyme addition and three freeze/thaw cycles, prior to sonication and DNAse I addition. Clarified lysate was prepared by centrifugation at 5000 x g at 4°C and incubated with nickel beads (Ni-NTA Agarose, Qiagen) for 1 hr at 4°C to capture hexahistidine-tagged protein. Following washing with 3 column volumes of wash buffer (50 mM HEPES pH 7.3, 500 mM NaCl, 20mM imidazole), TEV protease was added overnight at 4 °C to cleave the SH2 domain protein from the hexahistidine-tag. The next day, flow through containing tag-free SH2 domain protein was collected and the beads were washed with several column volumes of wash buffer to fully remove the cleaved protein from the beads. […]

Assay [3] relates to R207A mutant p120RasGAP N-SH2. As to the kind of experiment: Native PAGE gel shift, R207A mutant N-SH2. Type of assay: binding, human. The following applies: protein 0.08 mM, peptide 0.02 to 0.15 mM (peptide:protein 0.25 to 1.9); on ice 10 min; 50 mM Tris pH 7.4; 4–20% gel, pH 8.3, 200 V 1 h; Coomassie. How it is done:
as §1, §2
A serial dilution series of pTyr-1105 phosphopeptide was performed in dilution buffer (50 mM Tris pH 7.4), and mixed with wild-type or R207A mutant N-terminal SH2 domain protein for a final protein concentration of 0.08 mM and a phosphopeptide concentration ranging from 0.02 mM to 0.15 mM (peptide:protein ratio ranging from 0.25 to 1.9). The protein-peptide mixtures, or protein alone as negative control, were incubated on ice for 10 minutes and then centrifuged for 1 minute at 4 °C. 10 μL of 2X native protein sample buffer (62.5 mM Tris HCL pH 6.8, 40% glycerol, 0.01% bromophenol blue) was then added to all samples. […]
(A gel shift assay detects complexes by their altered migration in electrophoresis.)

Assay [4] deals with T1, N-terminal SH2 domain of p120RasGAP (Homo sapiens, UniProt P20936, C236S/C261S).
T1 construct: cDNA of residues 174 through 280 of human p120RasGAP (UniProt ID: P20936); made in house; host or cells: E. coli Rosetta(DE3)
T1 sequence (P20936 174-280 C236S/C261S): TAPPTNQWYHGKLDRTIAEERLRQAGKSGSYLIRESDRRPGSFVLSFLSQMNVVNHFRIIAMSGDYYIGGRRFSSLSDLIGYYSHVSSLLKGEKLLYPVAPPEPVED
The assay can be described thus: Isothermal titration calorimetry (ITC), wild-type N-SH2. The following applies: 20mM Tris 7.4, 150mM NaCl, independent binding model. How it is done:
cDNA of residues 174 through 280 of human p120RasGAP (UniProt ID: P20936) encoding the N-terminal SH2 domain tagged was subcloned into a modified pET28a vector with an N-terminal hexahistidine tag and TEV protease recognition sequence. Two native cysteines, C236 and C261, were mutated to serine to prevent disulfide bridge formation. Following transformation into Rosetta(DE3) cells, a 1L culture was induced overnight at OD600 of 0.6–0.8 and 18°C using 0.2 mM IPTG. Cells were harvested by centrifugation and resuspended in lysis buffer (50 mM HEPES pH 7.3, 500 mM NaCl). Lysis was facilitated by lysozyme addition and three freeze/thaw cycles, prior to sonication and DNAse I addition. Clarified lysate was prepared by centrifugation at 5000 x g at 4°C and incubated with nickel beads (Ni-NTA Agarose, Qiagen) for 1 hr at 4°C to capture hexahistidine-tagged protein. Following washing with 3 column volumes of wash buffer (50 mM HEPES pH 7.3, 500 mM NaCl, 20mM imidazole), TEV protease was added overnight at 4 °C to cleave the SH2 domain protein from the hexahistidine-tag. The next day, flow through containing tag-free SH2 domain protein was collected and the beads were washed with several column volumes of wash buffer to fully remove the cleaved protein from the beads. Size exclusion chromatography (Superdex 75, GE Healthcare) was performed on p120RasGAP N-SH2 in 20 mM Tris pH 7.4 and 150 mM NaCl. Yield was 20 mg/L culture. Protein was concentrated by centrifugal filter (Amicon Ultra, Millipore Sigma).
as §2
The N-SH2 protein and pTyr1105 peptide were prepared for ITC by overnight dialysis in a common buffer with a 20mM Tris 7.4, 150mM NaCl composition. Slide-A-Lyzer Dialysis Cassettes with a molecular weight cut-off of 3,500 Da were used for protein dialysis and Micro Float-A-Lyzer Dialysis devices with a 100–500 Da cut-off for peptide dialysis. Samples were retrieved from their cartridges, spun down for 10 minutes at 4°C. Concentrations were measured using a Nanodrop spectrophotometer at 280 nm. To determine peptide concentration, a phosphotyrosine extinction coefficient of 458.6 M^-1cm^-1 at pH 7.4 was used. Two ITC experiments were performed using a Nano-ITC (TA Instruments). Both protein and peptide were degassed for 3 minutes prior to loading. 350 μL of protein were injected into the sample cell. The injection burette was loaded with 52 μL of peptide. 20 injections of 2.5 μL of peptide, each spanning 300 seconds, were performed per ITC run. Results were analyzed using the nano-ITC software, through fitting to an independent binding model.
We conducted isothermal titration calorimetry to assess the interaction between the N-terminal SH2 domain of p120RasGAP and the p190RhoGAP pTyr-1105 peptide. We injected the p190RhoGAP pTyr-1105 peptide at a concentration of 78.5 μM into N-SH2 at a concentration of 15 μM. Averaged over two independent experiments we observe a Kd of 0.3 ± 0.1 μM (Fig 5A).
Background: ITC needs no label: the signal is the heat of the interaction.

Assay [5] deals with p190RhoGAP pTyr-1105 peptide pTyr-1105 peptide (Homo sapiens, UniProt Q9NRY4, pTyr1105). As to the kind of experiment: ITC.
The target in assay [6] is T2, p120RasGAP N-terminal SH2 domain (residues 174-280, C236S, C261S) (human, UniProt P20936 174-280, C236S | C261S).
T2 construct: human p120RasGAP (RASA1), residues 174 through 280, the N-terminal SH2 domain; two native cysteines mutated to serine; The His6 tag was removed with TEV protease; also called p120RasGAP N-SH2; N-SH2; source: E. coli Rosetta(DE3), purified (Ni-NTA, TEV cleavage, Superdex 75 SEC); not shown: His6, N-terminal, cleaved
T2 sequence (looked up): T1 sequence (P20936 174-280 C236S/C261S)
The assay can be described thus: ITC; peptide in the burette injected into N-SH2 in the cell (78.5 μM into 15 μM wild type; 120 μM into 15 μM R207A); 20 mM Tris 7.4, 150 mM NaCl; Nano-ITC, 20 injections of 2.5 μL; independent binding model; two runs. As to conditions: both partners purified.

Several values for one entry are separate records, joined by “and”; a condition that tells them apart may be missing. Identical values can stand only once. Where a SMILES comes first, the peptide text is derived from it. [ ]: non-standard residue; d: D form. pY = N[C@@H](Cc1ccc(OP(=O)(O)O)cc1)C(=O)O

With `CC[C@H](C)[C@H](NC(=O)[C@H](CC(N)=O)NC(=O)[C@H](CCC(=O)O)NC(=O)[C@H](CCC(=O)O)NC(=O)[C@H](CCC(=O)O)NC(C)=O)C(=O)N[C@@H](Cc1ccc(OP(=O)(O)O)cc1)C(=O)N[C@@H](CO)C(=O)N[C@H](C(=O)N1CCC[C@H]1C(=O)N[C@@H](Cc1c[nH]cn1)C(=O)N[C@@H](CC(=O)O)C(=O)N[C@@H](CO)C(=O)N[C@H](C(N)=O)[C@@H](C)O)C(C)C` [p190RhoGAP pTyr-1105 peptide] (Ac-EEENI[pY]SVPHDST-NH2), the “interaction upon mutation of the FLVR motif arginine residue” value in assay [1] (R207A mutant, summarising statement of the Conclusions (ITC and native PAGE)) is listed as “abolishes interaction”. Further, in assay [1] (peptide at 120 μM injected into R207A mutated N-SH2 at 15 μM, 20mM Tris 7.4, 150mM NaCl), the heat of binding result is “do not observe measurable heat”. The “mobility shift in native gel” value in assay [2] was “significant increase in its mobility in the gel”; in assay [3] it was “fails to shift”. Besides, the Kd in assay [4] (averaged over two independent ITC experiments, peptide at 78.5 μM injected into N-SH2 (residues 174-280, C236S/C261S) at 15 μM, 20 injections of 2.5 μL, 300 s each, read-out: Kd (dissociation constant)) was 300 ± 100 nM. Also, the TΔS in assay [4] (run 1 of two) is -8.9 kcal/mol; in assay [4] (run 2 of two) it was -4.9 kcal/mol. Further, the ΔG in assay [4] (run 1 of two) is -8.7 kcal/mol; in assay [4] (run 2 of two) it was -9.0 kcal/mol. The results for the ΔH in assay [4] (run 1 of two) and in assay [4] (run 2 of two) were -17.6 kcal/mol and -13.9 kcal/mol, respectively.

B1: p120RasGAP N-terminal SH2 (protein)
chain: WYHGKLDRTIAEERLRQAGKSGSYLIRESDRRPGSFVLSFLSQMNVVNHFRIIAMCGDYYIGGRRFSSLSDLIGYYSHVSCLLKGEKLLYPV
Turning to B1, binding in assay [5] was characterised by a dissociation constant (Kd) of 300 nM.

B2: p190RhoGAP pTyr-1105 phosphopeptide EEENI(p-Tyr)SVPHDST (residues 1100-1112) (peptide)
peptide: Ac-EEENI[pY]SVPHDST-NH2
SMILES: CC[C@H](C)[C@H](NC(=O)[C@H](CC(N)=O)NC(=O)[C@H](CCC(=O)O)NC(=O)[C@H](CCC(=O)O)NC(=O)[C@H](CCC(=O)O)NC(C)=O)C(=O)N[C@@H](Cc1ccc(OP(=O)(O)O)cc1)C(=O)N[C@@H](CO)C(=O)N[C@H](C(=O)N1CCC[C@H]1C(=O)N[C@@H](Cc1c[nH]cn1)C(=O)N[C@@H](CC(=O)O)C(=O)N[C@@H](CO)C(=O)N[C@H](C(N)=O)[C@@H](C)O)C(C)C
notes: The sixth residue (Y) is phosphotyrosine; also called pTyr1105 peptide; source: synthetic peptide (GenScript)
On to B2, for which, in assay [6], the Kd was 240 nM and 430 nM; the dH was -17.6 kcal/mol and -13.9 kcal/mol; the “stoichiometry N” value is 0.724 and 0.63.

A word on the Kd: it is the free concentration of one partner at which half of the binding sites on the other are occupied at equilibrium, for simple one-to-one binding. In general, stoichiometry N refers to a count of units in the complex or per binding partner.

The values are drawn from paper PMC6938330, “Crystal structures of p120RasGAP N-terminal SH2 domain in its apo form and in complex with a p190RhoGAP phosphotyrosine peptide” (PLoS ONE, 2019).
